Literature values, collected in patent US20070020305A1, “Attractant for monitoring or controlling female stored product moths” (Board of Regents for Oklahoma State University, priority 2004, published 2007).

System: stored product moths
Conditions: for Attraction of females and males: Indianmeal moth and Mediterranean flour moth, Toth et al. 2002

SMILES | Attraction of females and males | Attractiveness to stored product moths, in words (background statement)
CC(=O)O [acetic acid] | would attract females and males | 
CC(C)CCO [isoamyl alcohol] | would attract females and males | 
CCCCC/C=C\C=C\C(=O)OCC [ethyl-decdienoate] |  | not attractive
